Results as given in patent US20050222205A1, “Treatment of pain with ifendropil” (priority 2002, published 2005).
“Also recorded” adds a separate entry of the source.

Key:
[1] = system: thermal stimulation of the lesioned paw; assay: effect of agents on thermal stimulation of the lesioned paw; format: in vivo
alpha1-adrenoceptor = assay: hypotension liability (alpha1-adrenoceptor antagonism)
neuropathic pain = assay: model of neuropathic pain (Bennett model); format: in vivo
Text: Evidence of the incorrect conclusion reached by Chenard et al., 1991, supra, is provided by experiments conducted in a Bennett model (Bennett et al, 1988, Pain 33(1):87-107). The results are shown in the accompanying drawing.

acute and chronic pain = conditions: in vivo; cited from earlier work
[2] = system: alpha-1 adrenergic receptor; conditions: cited from earlier work
[3] = target: NR2B-containing NMDA receptors (Homo sapiens, UniProt Q05586+Q13224); conditions: voltage-independent and non-competitive manner; cited from earlier work
Sequence of NR2B-containing NMDA receptors (Q13224 27-1484, other chains not shown): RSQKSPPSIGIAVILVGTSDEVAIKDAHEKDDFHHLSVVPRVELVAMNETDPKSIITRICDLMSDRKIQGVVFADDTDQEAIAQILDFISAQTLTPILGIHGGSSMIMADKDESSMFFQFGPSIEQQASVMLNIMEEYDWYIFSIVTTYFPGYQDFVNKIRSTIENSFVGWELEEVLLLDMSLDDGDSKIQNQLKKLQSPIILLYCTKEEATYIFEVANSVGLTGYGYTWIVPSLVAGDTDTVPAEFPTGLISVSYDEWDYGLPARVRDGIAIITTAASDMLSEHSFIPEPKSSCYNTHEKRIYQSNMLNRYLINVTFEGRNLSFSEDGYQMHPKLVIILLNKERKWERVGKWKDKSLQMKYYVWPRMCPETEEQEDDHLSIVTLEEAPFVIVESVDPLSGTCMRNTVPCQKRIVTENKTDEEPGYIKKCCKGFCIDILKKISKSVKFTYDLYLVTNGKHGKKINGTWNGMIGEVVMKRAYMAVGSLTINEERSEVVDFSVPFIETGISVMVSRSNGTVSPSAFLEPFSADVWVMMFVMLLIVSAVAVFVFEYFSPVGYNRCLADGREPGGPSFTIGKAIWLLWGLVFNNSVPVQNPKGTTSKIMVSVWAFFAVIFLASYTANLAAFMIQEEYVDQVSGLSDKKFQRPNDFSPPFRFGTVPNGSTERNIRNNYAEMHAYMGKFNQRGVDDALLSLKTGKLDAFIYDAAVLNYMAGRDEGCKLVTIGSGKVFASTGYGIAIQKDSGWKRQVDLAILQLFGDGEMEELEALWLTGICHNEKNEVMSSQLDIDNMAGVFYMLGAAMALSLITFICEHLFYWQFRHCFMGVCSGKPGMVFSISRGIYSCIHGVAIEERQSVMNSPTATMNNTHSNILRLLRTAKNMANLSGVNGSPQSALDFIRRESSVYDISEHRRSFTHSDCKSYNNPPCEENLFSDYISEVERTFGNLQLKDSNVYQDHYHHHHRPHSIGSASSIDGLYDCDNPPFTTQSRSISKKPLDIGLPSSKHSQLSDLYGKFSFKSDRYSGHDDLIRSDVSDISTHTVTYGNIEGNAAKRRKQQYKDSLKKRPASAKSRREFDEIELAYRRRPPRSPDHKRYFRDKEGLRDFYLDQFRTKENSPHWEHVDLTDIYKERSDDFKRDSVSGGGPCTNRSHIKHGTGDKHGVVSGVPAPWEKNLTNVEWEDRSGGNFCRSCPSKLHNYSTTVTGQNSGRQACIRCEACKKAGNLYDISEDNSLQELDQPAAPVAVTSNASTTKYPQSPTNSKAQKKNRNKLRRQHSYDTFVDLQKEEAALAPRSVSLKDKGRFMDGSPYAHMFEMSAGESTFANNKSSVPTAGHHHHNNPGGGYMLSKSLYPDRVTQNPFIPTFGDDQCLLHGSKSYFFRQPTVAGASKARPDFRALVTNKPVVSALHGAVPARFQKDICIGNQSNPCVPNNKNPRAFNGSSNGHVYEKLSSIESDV

CC(C(O)c1ccc(O)cc1)N1CCC(Cc2ccccc2)CC1 (single isomer, unassigned; (-)) [(−)-threo-ifenprodil]
effectiveness on thermal stimulation of the lesioned paw, comparison of enantiomers ([1]; 3 mg/kg ip): the most effective enantiomer
hypotension liability (alpha1-adrenoceptor antagonism) versus the other enantiomers (alpha1-adrenoceptor): lower hypotension liability
efficacy versus the other enantiomers in a model of neuropathic pain (neuropathic pain): does not produce a significant increase in efficacy over the other enantiomers

CC(C(O)c1ccc(O)cc1)N1CCC(Cc2ccccc2)CC1 (stereo not shown) [Ifenprodil, 2-(4-benzylpiperidino)-1-(4-hydroxyphenyl)-1-propanol]
effectiveness on thermal stimulation of the lesioned paw relative to comparators ([1]; ifenprodil 3, 10 and 30 mg/kg ip, gabapentin 30 mg/kg ip, morphine 8 mg/kg ip): more effective than gabapentin; also recorded: almost as effective as morphine
anti-nociceptive activity in animal models of acute and chronic pain (acute and chronic pain): exhibits anti-nociceptive activity
alpha-1 adrenergic receptor binding [2]: potent alpha-1 adrenergic receptor binding properties
block of NR2B-containing NMDA receptors [3]: selectively blocks NR2B-containing NMDA receptors
